Laboratory results as given in patent publication US6509361B1, “1,5-Diaryl substituted pyrazoles as p38 kinase inhibitors” (Pharmacia Corporation, priority 2001, dated 2003).

Key:
[1] = tested on: TNF-a (LPS-stimulated human peripheral blood mononuclear cells); assay: TNF Cell Assay: LPS stimulation of human PBM cells, TNF-a by ELISA; type: cell-based; settings: PBMC, LPS 20 ng/ml, overnight 37° C., compound 10-0.41 μM
Method: Method of Isolation of Human Peripheral Blood Mononuclear Cells:
Human whole blood was collected in Vacutainer tubes containing EDTA as an anticoagulant. A blood sample (7 ml) was carefully layered over 5 ml PMN Cell Isolation Medium (Robbins Scientific) in a 15 ml round bottom centrifuge tube. The sample was centrifuged at 450-500×g for 30-35 minutes in a swing out rotor at room temperature. After centrifugation, the top band of cells were removed and washed 3 times with PBS w/o calcium or magnesium. The cells were centrifuged at 400×g for 10 minutes at room temperature. The cells were resuspended in Macrophage Serum Free Medium (Gibco BRL) at a concentration of 2 million cells/ml.
LPS Stimulation of Human PBMS:
PBM cells (0.1 ml, 2 million/ml) were co-incubated with 0.1 ml compound (10-0.41 μM, final concentration) for 1 hour in flat bottom 96 well microtiter plates. Compounds were dissolved in DMSO initially and diluted in TCM for a final concentration of 0.1% DMSO. LPS (Calbiochem, 20 ng/ml, final concentration) was then added at a volume of 0.010 ml. Cultures were incubated overnight at 37° C. Supernatants were then removed and tested by ELISA for TNF-a and IL1-b. Viability was analyzed using MTS. After 0.1 ml supernatant was collected, 0.020 ml MTS was added to remaining 0.1 ml cells. The cells were incubated at 37° C. for 2-4 hours, then the O.D. was measured at […].

human p38 kinase alpha = biological target: T1, human p38 kinase alpha (Homo sapiens, UniProt Q16539); assay: p38 Kinase Assay (in vitro; PHAS-I/32P-ATP format or EGFRP/33P-ATP format); type: biochemical; settings: activated human p38 kinase alpha, 50 μM unlabeled ATP; table does not say which of the two assay formats
T1 construct: The coding region of the human p38a cDNA was obtained by PCR-amplification from RNA isolated from the human monocyte cell line THP.1; GST (N); made in house; host or cells: E. coli DH10B
Method: The coding region of the human p38a cDNA was obtained by PCR-amplification from RNA isolated from the human monocyte cell line THP.1. First strand cDNA was synthesized from total RNA as follows: 2 μg of RNA was annealed to 100 ng of random hexamer primers in a 10 μl reaction by heating to 70° C. for 10 minutes followed by 2 minutes on ice. cDNA was then synthesized by adding 1 μl of RNAsin (Promega, Madison Wis.), 2 μl of 50 mM dNTP's, 4 μl of 5×buffer, 2 μl of 100 mM DTT and 1 μl (200 U) of Superscript II™ […] reverse transcriptase. Random primer, dNTP's and Superscript™ reagents were all purchased from Life-Technologies, Gaithersburg, Mass. The reaction was incubated at 42° C. for 1 hour. Amplification of p38 cDNA was performed by aliquoting 5 μl of the reverse transcriptase reaction into a 100 μl PCR reaction containing the following: 80 μl dH2O, 2 μl 50 mM dNTP's, 1 μl each of forward and reverse primers (50 pmol/μl), 10 μl of 10× buffer and 1 μl Expand™ polymerase (Boehringer Mannheim). The PCR primers incorporated Bam HI sites onto the 5′ and 3′ end of the amplified fragment, and were purchased from Genosys. The forward and reverse primers were 5′-[…]-3′ and 5′[…]-3′, respectively. The PCR amplification was carried out in a DNA Thermal Cycler (Perkin Elmer) by repeating 30 cycles of 94° C. for 1 minute, 60° C. for 1 minute and 68° C. for 2 minutes. After amplification, excess primers and unincorporated dNTP's were removed from the amplified fragment with a Wizard™ PCR prep (Promega) and digested with Bam HI (New England Biolabs). The Bam HI digested fragment was ligated into BamHI digested pGEX 2T plasmid DNA (PharmaciaBiotech) using T-4 DNA ligase (New England Biolabs) as described by T. Maniatis, Molecular Cloning: A Laboratory Manual, 2nd ed. (1989). The ligation reaction was transformed into chemically competent E. coli DH10B cells purchased from Life-Technologies following the manufacturer's instructions. Plasmid DNA was isolated from the resulting bacterial colonies using a Promega Wizard™ miniprep kit. Plasmids containing the appropriate Bam HI fragment were sequenced in a DNA Thermal Cycler (Perkin Elmer) with Prism™ (Applied Biosystems Inc.). cDNA clones were identified that coded for both human p38a isoforms (Lee et al. Nature 372, 739). One of the clones which contained the cDNA for p38a-2 (CSBP-2) inserted in the cloning site of pGEX 2T, 3′ of the GST coding region was designated pMON 35802. The sequence obtained for this clone is an exact match of the cDNA clone reported by Lee et al. This expression plasmid allows for the production of a GST-p38a fusion protein.
Expression of Human p38a:
GST/p38a fusion protein was expressed from the plasmid pMON 35802 in E. coli, stain DH10B (Life Technologies, Gibco-BRL). Overnight cultures were grown in Luria Broth (LB) containing […] ampicillin. The next day, 500 ml of fresh LB was inoculated with 10 ml of overnight culture, and grown in a 2 liter flask at 37° C. with constant shaking until the culture reached an absorbance of 0.8 at 600 nm. Expression of the fusion protein was induced by addition of isopropyl b-D-thiogalactosidse (IPTG) to a final concentration of 0.05 mM. The cultures were shaken for three hours at room temperature, and the cells were harvested by centrifugation. The cell pellets were stored frozen until protein purification.
Purification of p38 Kinase-α:
All chemicals were from Sigma Chemical Co. unless noted. Twenty grams of E. coli cell pellet collected from five 1 L shake flask fermentations was resuspended in a volume of PBS (140 mM NaCl, 2.7 mM KCl, 10 mM Na2HPO4, 1.8 mM KH2PO4, pH 7.3) up to 200 ml. The cell suspension was adjusted to 5 mM DTT with 2 M DTT and then split equally into five 50 ml Falcon conical tubes. The cells were sonnicated (Ultrasonics model W375) with a 1 cm probe for 3×1 minutes (pulsed) on ice. […]

[2] = tested on: TNF-α released by U937 cells (human histiocytic lymphoma cell line); assay: U937 Cell Assay: LPS stimulation of TNF production by U937 cells, ELISA; type: cell-based; settings: U-937, differentiated U937 cells, LPS 100 ng/ml, 4 hour incubation
Method: Maintenance and Differentiation of the U937 Human Histiocytic Lymphoma Cell Line:
U937 cells (ATCC) were propagated in RPMI 1640 containing 10% fetal bovine serum, 100 IU/ml penicillin, 100 μg/ml streptomycin, and 2 mM glutamine (Gibco). Fifty million cells in 100 ml media were induced to terminal monocytic differentiation by 24 hour incubation with 20 ng/ml phorbol 12-myristate 13-acetate (Sigma). The cells were washed by centrifugation (200×g for 5 min) and resuspended in 100 ml fresh medium. After 24-48 hours, the cells were harvested, centrifuged, and resuspended in culture medium at 2 million cells/ml.
LPS Stimulation of TNF Production by U937 Cells:
U937 cells (0.1 ml, 2 million/ml) were incubated with 0.1 ml compound (0.004-50 μM, final concentration) for 1 hour in 96 well microtiter plates. Compounds were prepared as 10 mM stock solutions in DMSO and diluted in culture medium to yield a final DMSO concentration of 0.1% in the cell assay. LPS (E. coli, 100 ng/ml final concentration) was then added at a volume of 0.02 ml. After 4 hour incubation at 37° C., the amount of TNF-α released in the culture medium was quantitated by ELISA. Inhibitory potency is expressed as IC50 (μM).

T1 sequence (Q16539 whole entry): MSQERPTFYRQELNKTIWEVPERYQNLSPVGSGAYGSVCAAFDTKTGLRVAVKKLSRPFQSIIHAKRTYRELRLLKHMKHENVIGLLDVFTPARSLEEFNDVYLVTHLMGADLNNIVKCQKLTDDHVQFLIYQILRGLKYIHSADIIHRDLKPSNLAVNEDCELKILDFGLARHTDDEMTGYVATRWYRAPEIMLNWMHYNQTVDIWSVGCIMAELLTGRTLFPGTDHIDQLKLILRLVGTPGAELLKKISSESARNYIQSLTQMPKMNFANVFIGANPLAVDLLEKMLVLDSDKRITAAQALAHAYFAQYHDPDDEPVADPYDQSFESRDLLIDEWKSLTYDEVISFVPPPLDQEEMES

Row | IC50 [1] | IC50 (human p38 kinase alpha) | IC50 [2] | melting point | SMILES
1 | 0.8 µM | 2.24 µM | – | – | Cc1cccc(-n2nc(C)cc2-c2ccnc(N(C)CCc3ccccc3)c2)c1 [Example 25, 2-(N-Methylphenylethylamino)-4-[1-(3-methylphenyl)-3-methyl-1H-pyrazol-5-yl]pyridine]
2 | 1.3 µM | 0.129 µM | 0.24 µM | – | Fc1ccc(-n2nccc2-c2ccnc(NCc3ccccc3)c2)cc1 [Example 29, 2-(Benzylamino)-4-[1-(4-fluorophenyl)-1H-pyrazol-5-yl]pyridine]
3 | > 10 µM | > 100 µM | – | – | Cc1cnn(Cc2ccccc2)c1-c1ccncc1 [Example 4]
4 | > 10 µM | 29.9 µM | – | 140 to 142 °C | Cc1cccc(-n2nc(C)cc2-c2ccnc(S(C)(=O)=O)c2)c1 [Example 36, 2-(Methylsulfonyl)-4-[1-(3-methylphenyl)-3-methyl-1H-pyrazol-5-yl]pyridine]
5 | 10 µM | 0.024 µM | – | – | Fc1ccc(-n2nccc2-c2ccnc(NCCc3ccccc3)c2)cc1 [Example 30, 2-(Phenylethylamino)-4-[1-(4-fluorophenyl)-1H-pyrazol-5-yl]pyridine]
6 | 0.6 µM | 0.219 µM | – | – | Cc1cc(-c2ccnc(NCc3cccnc3)c2)n(-c2cccc(F)c2)n1 [Example 38, 2-(3-Pyridylmethylamino)-4-[1-(3-fluorophenyl)-3-methyl-1H-pyrazol-5-yl]pyridine]
7 | 0.2 µM | 1.4 µM | – | 148.2 °C | Cc1ccc(-n2nc(C)cc2-c2ccnc(NCCO)c2)cc1 [Example 5]
8 | 1.1 µM | 0.01 µM | – | 102.1 °C | Cc1ccc(-n2nc(C)cc2-c2ccnc(NCc3ccccc3)c2)cc1 [Example 7]
9 | – | 2.68 µM | ≥ 10 µM | – | COC(=O)c1cnn(-c2ccc(F)cc2)c1-c1ccncc1 [Example 42, Methyl 1-(4-Fluorophenyl)-5-(4-pyridinyl)-1H-pyrazole-4-carboxylate]
10 | 1.5 µM | 0.4 µM | – | 108.94 °C | Cc1ccc(-n2nc(C)cc2-c2ccnc(NCc3cccnc3)c2)cc1 [Example 6]
11 | > 10 µM | > 100 µM | – | – | Cc1ccc(-n2nc(C)cc2-c2ccnc(N(C)C)c2)cc1 [Example 10]
12 | – | 67.7 µM | > 10 µM | – | Cc1cc(-c2ccnc(Cl)c2)n(-c2cccc(F)c2)n1 [Example 46, 2-Chloro-4-[1-(3-fluorophenyl)-3-methyl-1H-pyrazol-5-yl]pyridine]
13 | – | – | – | 109 to 110 °C | CCc1c[nH][n+](-c2cccc(F)c2)c1-c1ccncc1 [Example 40]
14 | > 10 µM | > 100 µM | – | 94.38 °C | Cc1ccc(-n2nc(C)cc2-c2cccc(N)c2)cc1 [Example 14]
15 | 0.5 µM | 0.35 µM | – | 124 to 125 °C | Cc1cccc(-n2nc(C)cc2-c2ccnc(N)c2)c1 [Example 21, 2-Amino-4-[1-(3-methylphenyl)-3-methyl-1H-pyrazol-5-yl]pyridine]
16 | – | 44 µM | – | 168 to 170 °C | Cc1cc(-c2ccnc(C(N)=O)c2)n(-c2ccc(F)cc2)n1 [Example 34, {4-[1-(4-Fluorophenyl)-3-methyl-1H-pyrazol-5-yl]}pyridine-2-carboxamide]
17 | 0.1 µM | 0.002 µM | – | – | Cc1cccc(-n2nc(C)cc2-c2ccnc(NCc3ccccc3)c2)c1 [Example 19, 2-(Benzylamino)-4-[1-(3-methylphenyl)-3-methyl-1H-pyrazol-5-yl]pyridine]
18 | – | – | – | 94 to 96 °C | Cc1cc(-c2ccnc(NCc3ccccc3)c2)n(-c2cccc(F)c2)n1 [Example 20, 2-(Benzylamino)-4-[1-(3-fluorophenyl)-3-methyl-1H-pyrazol-5-yl]pyridine]
19 | 4 µM | 37.2 µM | – | 131.11 °C | Cc1cnn(-c2cccc(F)c2)c1-c1ccncc1 [Example 2]
20 | 2.9 µM | 14 µM | – | 100.07 °C | Cc1ccc(-n2nc(C)cc2-c2ccnc(Cl)c2)cc1 [Example 41, 2-chloro-4-[3-methyl-1-(4-methylphenyl)-1H-pyrazol-5-yl]pyridine]
21 | 2.2 µM | 85 µM | – | 134 to 135 °C | Cc1cc(-c2ccnc(N=[N+]=[N-])c2)n(-c2cccc(F)c2)n1 [Example 37, {4-[1-(3-Fluorophenyl)-3-methyl-1H-pyrazol-5-yl]}pyridine-2-azide]
22 | – | 65.1 µM | ≥ 10 µM | – | O=C(O)c1cnn(-c2ccc(F)cc2)c1-c1ccncc1 [Example 43]
23 | – | – | – | 93 to 94 °C | CCCc1c[nH][n+](-c2cccc(F)c2)c1-c1ccncc1 [Example 39]
24 | 5 µM | – | – | 193 to 195 °C | Cc1cccc(-n2nc(C)cc2-c2ccnc(C(N)=O)c2)c1 [Example 33, {4-[1-(3-Methylphenyl)-3-methyl-1H-pyrazol-5-yl]}-2-pyridine-2-carboxamide]
